Patent publication US6737383B1, “Herbicidal oxadiazolidines” (priority 1999, dated 2004)

What was measured:
smallflower flatsedge = assay: Test B flood test smallflower flatsedge; assay type: in vivo, Cyperus difformis
Summary of the method: (§1)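 Read-out is a visual response score from 0 (no effect) to 10 (complete control), assigned by comparison with untreated controls. Treatment was applied at the 2-leaf stage, and plants stayed in the greenhouse for twelve to sixteen days before scoring.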

sugar beet = assay: Test B pre/postemergence sugar beet; assay type: in vivo, Beta vulgaris
Summary of the method: (§2)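 Response is a visual 0-to-10 score relative to untreated plants, where 0 means no effect and 10 means complete control, taken twelve to sixteen days after application. Treatments went onto soil at planting and onto foliage of 1- to 4-leaf plants, using a surfactant-containing non-phytotoxic solvent.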

bamyardgrass = assay: Test B flood test barnyardgrass; assay type: in vivo, Echinochloa crus-galli
Summary of the method: as §1

corn = assay: Test B pre/postemergence corn; assay type: in vivo, Zea mays
Summary of the method: as §2

cocklebur = assay: Test B pre/postemergence cocklebur; assay type: in vivo, Xanthium strumarium
Summary of the method: as §2

wild oat = assay: Test B pre/postemergence wild oat; assay type: in vivo, Avena fatua
Summary of the method: as §2

pigweed = assay: Test B pre/postemergence pigweed; assay type: in vivo, Amaranthus retroflexus
Summary of the method: as §2

rape = assay: Test B pre/postemergence rape; assay type: in vivo, Brassica napus
Summary of the method: as §2

morningglory = assay: Test B pre/postemergence morningglory; assay type: in vivo, Ipomoea hederacea
Summary of the method: as §2

wheat = assay: Test B pre/postemergence wheat; assay type: in vivo, Triticum aestivum
Summary of the method: as §2

duck salad = assay: Test B flood test duck salad; assay type: in vivo, Heteranthera limosa
Summary of the method: as §1

rice = assay: Test B flood test rice; assay type: in vivo, Oryza sativa
Summary of the method: as §1

giant foxtail = assay: Test B pre/postemergence giant foxtail; assay type: in vivo, Setaria faberii
Summary of the method: as §2

purple nutsedge = assay: Test B pre/postemergence purple nutsedge; assay type: in vivo, Cyperus rotundus; details: Postemergence
Summary of the method: as §2

crabgrass = assay: Test B pre/postemergence crabgrass; assay type: in vivo, Digitaria sanguinalis
Summary of the method: as §2

surinam grass = assay: Test B pre/postemergence surinam grass; assay type: in vivo, Brachiaria decumbens
Summary of the method: as §2

[1] = Rate 62 g/ha, headed Pre-emergence (flood test species), scale 0 to 10 (0 no effect, 10 complete control)
[2] = Rate 125 g/ha, Pre-emergence, flood test species, scale 0 to 10 where 0 is no effect and 10 is complete control
[3] = Rate 250 g/ha, Pre-emergence, flood-test species, scale 0 to 10, 0 is no effect, 10 is complete control
[4] = Rate 500 g/ha, Pre-emergence, flood test species, scale 0 to 10 (0 no effect, 10 complete control)
[5] = Preemergence, Rate 62 g/ha, scale of 0 to 10 where 0 is no effect and 10 is complete control
[6] = Preemergence, Rate 250 g/ha, scale of 0 to 10 where 0 is no effect and 10 is complete control
[7] = Preemergence, Rate 500 g/ha, scale of 0 to 10 where 0 is no effect and 10 is complete control
[8] = Rate 62 g/ha, Postemergence, scale of 0 to 10 where 0 is no effect and 10 is complete control
[9] = Rate 125 g/ha, Postemergence, scale 0 to 10
[10] = Rate 125 g/ha, Preemergence, scale of 0 to 10 where 0 is no effect and 10 is complete control
[11] = Rate 500 g/ha, Postemergence, scale 0 to 10, 0 no effect, 10 complete control

CC(C)N(C(=O)n1oc(=O)n(-c2cccnc2)c1=O)c1ccccc1 [Compound 235]
S. Flatsedge plant response rating (smallflower flatsedge; [1]): 0
S. Flatsedge plant response rating (smallflower flatsedge; [2]): 0
S. Flatsedge plant response rating (smallflower flatsedge; [3]): 0
S. Flatsedge plant response rating (smallflower flatsedge; [4]): 0
Sugarbeets plant response rating (sugar beet; [5]): 0
Sugarbeets plant response rating (sugar beet; [6]): 0
Plant response rating, Sugarbeets (sugar beet; [7]): 0
Sugarbeets plant response rating (sugar beet; [8]): 0
Sugarbeets plant response rating (sugar beet; [9]): 0
Sugarbeets plant response rating (sugar beet; [10]): 0
Plant response rating (0 to 10; 0 is no effect, 10 is complete control), Sugarbeets (sugar beet; Rate 250 g/ha, Postemergence): 0
Sugarbeets plant response rating (sugar beet; [11]): 0
Barnyardgrass plant response rating (bamyardgrass; [1]): 0
Barnyardgrass plant response rating (bamyardgrass; [2]): 0
Barnyardgrass plant response rating (bamyardgrass; [3]): 0
Barnyardgrass plant response rating (bamyardgrass; [4]): 0
Corn plant response rating (corn; [5]): 0
Corn plant response rating (corn; [6]): 0
Plant response rating, Corn (corn; [7]): 0
Corn plant response rating (corn; [8]): 0
Corn plant response rating (corn; [9]): 0
Corn plant response rating (corn; [10]): 0
Plant response rating (0 to 10; 0 is no effect, 10 is complete control), Corn (corn; Rate 250 g/ha, Postemergence): 0
Corn plant response rating (corn; [11]): 0
Cocklebur plant response rating (cocklebur; [5]): 0
Cocklebur plant response rating (cocklebur; [6]): 0
Plant response rating, Cocklebur (cocklebur; [7]): 0
Cocklebur plant response rating (cocklebur; [8]): 0
Cocklebur plant response rating (cocklebur; [9]): 0
Cocklebur plant response rating (cocklebur; [10]): 0
Plant response rating (0 to 10; 0 is no effect, 10 is complete control), Cocklebur (cocklebur; Rate 250 g/ha, Postemergence): 0
Cocklebur plant response rating (cocklebur; [11]): 0
Wild oats plant response rating (wild oat; [5]): 0
Wild oats plant response rating (wild oat; [6]): 0
Plant response rating, Wild oats (wild oat; [7]): 0
Wild oats plant response rating (wild oat; [8]): 0
Wild oats plant response rating (wild oat; [9]): 0
Wild oats plant response rating (wild oat; [10]): 0
Plant response rating (0 to 10; 0 is no effect, 10 is complete control), Wild oats (wild oat; Rate 250 g/ha, Postemergence): 0
Wild oats plant response rating (wild oat; [11]): 0
Redroot pigweed plant response rating (pigweed; [5]): 0
Redroot pigweed plant response rating (pigweed; [6]): 0
Plant response rating, Redroot pigweed (pigweed; [7]): 0
Redroot pigweed plant response rating (pigweed; [8]): 0
Redroot pigweed plant response rating (pigweed; [9]): 0
Redroot pigweed plant response rating (pigweed; [10]): 0
Plant response rating (0 to 10; 0 is no effect, 10 is complete control), Redroot pigweed (pigweed; Rate 250 g/ha, Postemergence): 0
Redroot pigweed plant response rating (pigweed; [11]): 0
Rape plant response rating (rape; [5]): 0
Rape plant response rating (rape; [6]): 0
Plant response rating, Rape (rape; [7]): 0
Rape plant response rating (rape; [8]): 0
Rape plant response rating (rape; [9]): 0
Rape plant response rating (rape; [10]): 0
Plant response rating (0 to 10; 0 is no effect, 10 is complete control), Rape (rape; Rate 250 g/ha, Postemergence): 0
Rape plant response rating (rape; [11]): 0
Morningglory plant response rating (morningglory; [5]): 0
Morningglory plant response rating (morningglory; [6]): 0
Plant response rating, Morningglory (morningglory; [7]): 0
Morningglory plant response rating (morningglory; [8]): 2
Morningglory plant response rating (morningglory; [9]): 2
Morningglory plant response rating (morningglory; [10]): 0
Plant response rating (0 to 10; 0 is no effect, 10 is complete control), Morningglory (morningglory; Rate 250 g/ha, Postemergence): 6
Morningglory plant response rating (morningglory; [11]): 7
Wheat plant response rating (wheat; [5]): 0
Wheat plant response rating (wheat; [6]): 0
Plant response rating, Wheat (wheat; [7]): 0
Wheat plant response rating (wheat; [8]): 0
Wheat plant response rating (wheat; [9]): 0
Wheat plant response rating (wheat; [10]): 0
Plant response rating (0 to 10; 0 is no effect, 10 is complete control), Wheat (wheat; Rate 250 g/ha, Postemergence): 0
Wheat plant response rating (wheat; [11]): 0
Ducksalad plant response rating (duck salad; [1]): 0
Ducksalad plant response rating (duck salad; [2]): 0
Ducksalad plant response rating (duck salad; [3]): 0
Ducksalad plant response rating (duck salad; [4]): 0
Rice plant response rating (rice; [1]): 0
Rice plant response rating (rice; [2]): 0
Rice plant response rating (rice; [3]): 0
Rice plant response rating (rice; [4]): 0
Giant foxtail plant response rating (giant foxtail; [5]): 0
Giant foxtail plant response rating (giant foxtail; [6]): 0
Plant response rating, Giant foxtail (giant foxtail; [7]): 0
Giant foxtail plant response rating (giant foxtail; [8]): 0
Giant foxtail plant response rating (giant foxtail; [9]): 0
Giant foxtail plant response rating (giant foxtail; [10]): 0
Plant response rating (0 to 10; 0 is no effect, 10 is complete control), Giant foxtail (giant foxtail; Rate 250 g/ha, Postemergence): 0
Giant foxtail plant response rating (giant foxtail; [11]): 0
Nutsedge plant response rating (purple nutsedge; Rate 62 g/ha, scale of 0 to 10 where 0 is no effect and 10 is complete control): 0
Nutsedge plant response rating (purple nutsedge; Rate 125 g/ha, scale 0 to 10): 0
Plant response rating (0 to 10; 0 is no effect, 10 is complete control), Nutsedge (purple nutsedge; Rate 250 g/ha): 0
Nutsedge plant response rating (purple nutsedge; Rate 500 g/ha, scale 0 to 10, 0 no effect, 10 complete control): 0
Crabgrass plant response rating (crabgrass; [5]): 0
Crabgrass plant response rating (crabgrass; [6]): 0
Plant response rating, Crabgrass (crabgrass; [7]): 0
Crabgrass plant response rating (crabgrass; [8]): 0
Crabgrass plant response rating (crabgrass; [9]): 0
Crabgrass plant response rating (crabgrass; [10]): 0
Plant response rating (0 to 10; 0 is no effect, 10 is complete control), Crabgrass (crabgrass; Rate 250 g/ha, Postemergence): 0
Crabgrass plant response rating (crabgrass; [11]): 0
B. signalgrass plant response rating (surinam grass; [5]): 0
B. signalgrass plant response rating (surinam grass; Preemergence, Rate 250 g/ha, scale 0 to 10, 0 is no effect, 10 is complete control): 0
Plant response rating, B. signalgrass (surinam grass; [7]): 0
B. signalgrass plant response rating (surinam grass; [8]): 0
B. signalgrass plant response rating (surinam grass; Rate 125 g/ha, Postemergence, scale 0 (no effect) to 10 (complete control)): 0
B. signalgrass plant response rating (surinam grass; [10]): 0
Plant response rating (0 to 10; 0 is no effect, 10 is complete control), B. signalgrass (surinam grass; Rate 250 g/ha, Postemergence): 0
B. signalgrass plant response rating (surinam grass; [11]): 0
